Earlier results on six molecules are cited in PubChem BioAssay AID1259409 (Chemical Carcinogenesis Research Information System (CCRIS), 2018).

The data set relates to rodent chemically induced tumor inhibition, incidence and multiplicity. Description: CCRIS tumor inhibitor studies.

`CCCCCCCc1ccco1`: the “tumour outcome (control, treated, inhibition, significance)” value is on record as 14/17 (82%), 10/15 (66%), 20%, not significant (Carcinogen: BENZO[A]PYRENE, 50-32-8, Dose [Inhibitor]: 0, 25 UMOL IN 0.2 ML COTTONSEED OIL 3/WK FOR 4 WK BEGINNING 1 DAY PRIOR TO FIRST CARCINOGEN DOSE AND TERMINATING 1 DAY A, Route [Inhibitor]: GAVAGE, Species: MOUSE, Strain/Sex: STRAIN-A/FEMALE, Target Tissue: Type of Lesion: FORESTOMACH: TUMOR, Dose [Carcinogen]: 1 MG 2/WK FOR 4 WK, Promoter: NONE USED); 17/17 (100%), 15/15 (100%), 0%, not significant (Carcinogen: BENZO[A]PYRENE, 50-32-8, Dose [Inhibitor]: 0, 25 UMOL IN 0.2 ML COTTONSEED OIL 3/WK FOR 4 WK BEGINNING 1 DAY PRIOR TO FIRST CARCINOGEN DOSE AND TERMINATING 1 DAY A, Route [Inhibitor]: GAVAGE, Species: MOUSE, Strain/Sex: STRAIN-A/FEMALE, Target Tissue: Type of Lesion: LUNG: TUMOR, Dose [Carcinogen]: 1 MG 2/WK FOR 4 WK, Promoter: NONE USED); 14/17 (82%), 9/12 (75%), 8%, not significant (Carcinogen: BENZO[A]PYRENE, 50-32-8, Dose [Inhibitor]: 0, 50 UMOL IN 0.2 ML COTTONSEED OIL 3/WK FOR 4 WK BEGINNING 1 DAY PRIOR TO FIRST CARCINOGEN DOSE AND TERMINATING 1 DAY A, Route [Inhibitor]: GAVAGE, Species: MOUSE, Strain/Sex: STRAIN-A/FEMALE, Target Tissue: Type of Lesion: FORESTOMACH: TUMOR, Dose [Carcinogen]: 1 MG 2/WK FOR 4 WK, Promoter: NONE USED); 17/17 (100%), 12/12 (100%), 0%, not significant (Carcinogen: BENZO[A]PYRENE, 50-32-8, Dose [Inhibitor]: 0, 50 UMOL IN 0.2 ML COTTONSEED OIL 3/WK FOR 4 WK BEGINNING 1 DAY PRIOR TO FIRST CARCINOGEN DOSE AND TERMINATING 1 DAY A, Route [Inhibitor]: GAVAGE, Species: MOUSE, Strain/Sex: STRAIN-A/FEMALE, Target Tissue: Type of Lesion: LUNG: TUMOR, Dose [Carcinogen]: 1 MG 2/WK FOR 4 WK, Promoter: NONE USED).

As to `O=C1COc2ccccc21`, the “tumour outcome (control, treated, inhibition, significance)” value (Carcinogen: BENZO[A]PYRENE, 50-32-8, Dose [Inhibitor]: 0.034 MMOL/G IN DIET FOR 5 WK BEGINNING 1 WK PRIOR TO CARCINOGEN TREATMENT (STUDY DURATION: 21 WK), Route [Inhibitor]: ORAL, Species: MOUSE, Strain/Sex: ICR/FEMALE, Target Tissue: Type of Lesion: FORESTOMACH: TUMOR, Dose [Carcinogen]: 1 MG IN 0.2 ML CORN OIL 2/WK FOR 4 WK, Promoter: NONE USED) is on record as 95%, 89%, 6%, not significant.

`C=C1CC[C@H]2[C@@]3(C)CCC[C@]2(C)[C@H]1CO[C@@H](C(=O)OC)[C@H](CC(=O)O)C(=O)OC[C@]1(C)CCC[C@]2(C)[C@@H](CO[C@@H](C(=O)OC)[C@H](CC(=O)O)C(=O)OC3)C(=C)CC[C@@H]12`: the “tumour outcome (control, treated, inhibition, significance)” value (Carcinogen: 7,12-DIMETHYLBENZ[A]ANTHRACENE, 57-97-6, Dose [Inhibitor]: 0, 1 MG 2/WK FOR 20 WK APPLIED 10 MIN PRIOR TO EACH PROMOTER DOSE (STUDY DURATION: 20 WK), Route [Inhibitor]: DERMAL, Species: MOUSE, Strain/Sex: CD-1/FEMALE, Target Tissue: Type of Lesion: SKIN: TUMOR, Dose [Carcinogen]: 100 UG ONCE, Promoter: OKADAIC ACID, 78111-17-8) was 73%, 80%, -10%, not significant and the “tumour outcome (control, treated, inhibition, significance)” value (Carcinogen: 7,12-DIMETHYLBENZ[A]ANTHRACENE, 57-97-6, Dose [Inhibitor]: 0, 5 MG 2/WK FOR 20 WK APPLIED 10 MIN PRIOR TO EACH PROMOTER DOSE (STUDY DURATION: 20 WK), Route [Inhibitor]: DERMAL, Species: MOUSE, Strain/Sex: CD-1/FEMALE, Target Tissue: Type of Lesion: SKIN: TUMOR, Dose [Carcinogen]: 100 UG ONCE, Promoter: OKADAIC ACID, 78111-17-8) was 73%, 93%, -27%, not significant.

As for `CCCCC(C)N=C=S` (stereo not drawn), the “tumour outcome (control, treated, inhibition, significance)” value is on record as 100%, 70%, 30%, p<0.05 (Carcinogen: 4-(METHYLNITROSAMINO)-1-(3-PYRIDYL)-1-BUTANONE, 64091-91-4, Dose [Inhibitor]: 0, 1 UMOL ONCE 2 HR PRIOR TO CARCINOGEN DOSE (STUDY DURATION: 16 WK), Route [Inhibitor]: GAVAGE, Species: MOUSE, Strain/Sex: STRAIN-A/FEMALE, Target Tissue: Type of Lesion: LUNG: ADENOMA, Dose [Carcinogen]: 10 UMOL IN 0.1 ML SALINE ONCE, Promoter: NONE USED) and 100%, 30%, 70%, p<0.05 (Carcinogen: 4-(METHYLNITROSAMINO)-1-(3-PYRIDYL)-1-BUTANONE, 64091-91-4, Dose [Inhibitor]: 0, 5 UMOL ONCE 2 HR PRIOR TO CARCINOGEN DOSE (STUDY DURATION: 16 WK), Route [Inhibitor]: GAVAGE, Species: MOUSE, Strain/Sex: STRAIN-A/FEMALE, Target Tissue: Type of Lesion: LUNG: ADENOMA, Dose [Carcinogen]: 10 UMOL IN 0.1 ML SALINE ONCE, Promoter: NONE USED).

For the molecule `CCCCCCCCCCCC`, under “Carcinogen: 4-(METHYLNITROSAMINO)-1-(3-PYRIDYL)-1-BUTANONE, 64091-91-4, Dose [Inhibitor]: 0, 1 UMOL IN 0.1 ML CORN OIL ONCE 2 HR PRIOR TO CARCINOGEN DOSE (STUDY DURATION: 16 WK), Route [Inhibitor]: GAVAGE, Species: MOUSE, Strain/Sex: STRAIN-A/FEMALE, Target Tissue: Type of Lesion: LUNG: ADENOMA, Dose [Carcinogen]: 10 UMOL IN 0.1 ML SALINE ONCE, Promoter: NONE USED”, the “tumour outcome (control, treated, inhibition, significance)” value is given as 100%, 100%, 0%, not significant.

On to `O=C(CBr)c1ccc(Br)cc1`, for which the “tumour outcome (control, treated, inhibition, significance)” value by setting is: (Carcinogen: 7,12-DIMETHYLBENZ[A]ANTHRACENE, 57-97-6, Dose [Inhibitor]: 10 UMOL APPLIED 30-40 MIN BEFORE EACH TPA TREATMENT AND CONCURRENTLY WITH TPA (STUDY DURATION: 18 WK), Route [Inhibitor]: DERMAL, Species: MOUSE, Strain/Sex: CD-1/FEMALE, Target Tissue: Type of Lesion: SKIN: PAPILLOMA, Dose [Carcinogen]: 200 NMOL ONCE, Promoter: 12-O-TETRADECANOYLPHORBOL-13-ACETATE, 16561-29-8) 96%, 57%, 41%, not calculated; (Carcinogen: N-NITROSODIETHYLAMINE, 55-18-5, 2-ACETYLAMINOFLUORENE, 53-93-6, CARBON TETRACHLORIDE, 56-23-5, Carcinogen: N-NITROSODIETHYLAMINE, 55-18-5, 2-ACETYLAMINOFLUORENE, 53-93-6, CARBON TETRACHLORIDE, 56-23-5, Dose [Inhibitor]: 0, 0.75% IN DIET FOR 29 WK ADMINISTERED TO RATS BEARING PERSISTENT NODULES FOLLOWING CARCINOGEN TREATMENT (STUDY DURATIO, Route [Inhibitor]: ORAL, Species: RAT, Strain/Sex: F344/MALE, Target Tissue: Type of Lesion: LIVER: HEPATOCELLULAR CARCINOMA, Dose [Carcinogen]: 200 MG/KG BW DEN ONCE, 0.002% 2-AAF IN DIET FOR 2 WK, 1 MG/KG BW CCL4 MIDWAY IN 2-AAF TREATMENT, Dose [Carcinogen]: 200 MG/KG BW DEN ONCE, 0.002% 2-AAF IN DIET FOR 2 WK, 1 MG/KG BW CCL4 MIDWAY IN 2-AAF TREATMENT, Promoter: NONE USED) 7/8 (88%), 11/11 (100%), -12%, not significant; (Carcinogen: N-NITROSODIETHYLAMINE, 55-18-5, 2-ACETYLAMINOFLUORENE, 53-93-6, CARBON TETRACHLORIDE, 56-23-5, Carcinogen: N-NITROSODIETHYLAMINE, 55-18-5, 2-ACETYLAMINOFLUORENE, 53-93-6, CARBON TETRACHLORIDE, 56-23-5, Dose [Inhibitor]: 0, 0.75% IN DIET FOR 29 WK ADMINISTERED TO RATS BEARING PERSISTENT NODULES FOLLOWING CARCINOGEN TREATMENT (STUDY DURATIO, Route [Inhibitor]: ORAL, Species: RAT, Strain/Sex: F344/MALE, Target Tissue: Type of Lesion: LIVER: HEPATOCELLULAR CARCINOMA, Dose [Carcinogen]: 200 MG/KG BW DEN ONCE, 0.002% 2-AAF IN DIET FOR 2 WK, 1 ML/KG BW CCL4 MIDWAY IN 2-AAF TREATMENT, Dose [Carcinogen]: 200 MG/KG BW DEN ONCE, 0.002% 2-AAF IN DIET FOR 2 WK, 1 ML/KG BW CCL4 MIDWAY IN 2-AAF TREATMENT, Promoter: PHENOBARBITAL, 50-06-6) 12/12 (100%), 13/14 (93%), 7%, not significant.
